In patent US11826400B2, “Neuregulin based compositions and uses thereof for preventing, treating or delaying the myocardial ischemia-reperfusion injury” (ZENSUN (SHANGHAI) SCIENCE & TECHNOLOGY LIMITED, priority 2010, dated 2023):

Test system: myocardial ischemia reperfusion in rat
Assay: Therapeutic effect on myocardial ischemia reperfusion in rat (coronary ligation 45 min, reperfusion 2 h, TCC staining of heart sections)
Format: in vivo, Wistar rats
Conditions: Group D
Description: Wistar rats (male, 200˜240 g) were divided into groups and administered with different dosages of rhNRG-1, placebo or rhThymosin-β4 (as shown in Table 1) after anaesthetized with intra-abdominal injection of 20% urethane (5 ml/kg). Thirty minutes after the drug started to be given to the rats, the anterior descending limb of the left coronary artery was ligated for 45 minutes to cause partial myocardium turned white obviously in the ligation area. After that the ligation thread was loosen to keep coronary blood flow for 2 hours and then take out the heart rapidly and wash vascular fat away with normal saline, and then freeze the heart in −30° C. for one hour.
Cut the heart parallelly from apex to base along coronary sulcus to myocardium sections with the thickness of 1 mm, and then put them into TCC dye liquor for 20 min in 37° C. in a shaker. After staining extra dye was washed immediately with water, and then the sections were put into 4% formalin for one hour. Photo and analyze the total size and the infarction size of were analyzed with Image Analysis Software. Infarction size ratio equals to the ratio of the infarction size and the total size of the myocardium section.

## rhThymosin-β4: produced by Northland (Beijing) Bio-Technology Co Ltd, batch number: 20050728; comparator drug of Group D (SDKPDMAEIEKFDKSKLKKTETQEKNPLPSKETIEQEKQAGES; Thymosin beta-4; UniProt P62328 2-44, looked up)
2.5 mg/kg single intraperitoneal injection
  Infarction size compared with other groups: no significant difference with other groups
2.5 mg/kg single intraperitoneal injection 30 min before ligation, infarction size / total size of myocardium section, mean ± spread, 2.5 mg/kg
  The myocardium infarction size ratio: 0.151±0.030
